Measured values from patent publication US20050042209A1, “MUC1 extracellular domain and cancer treatment compositions and methods derived therefrom” (priority 2000, published 2005).

Key:
[1] = tested on: MUC1
Protocol: Cell Culture: Human MCF-7 breast carcinoma and HeLa cervical carcinoma cella (obtained form the ATCC, Manassas, Va.) were grown in DMEM (high glucose; Mediatech, Cellgrow) supplemented with 10% heat-inactivated fetal calf serum (FCS) and 2 mM L-glutamate.
Immunoblot analysis: Cells were lysed in ice-cold lysis buffer (20 mM Tris-HCl, pH 8.0, 150 mM NaCl, 1% Triton-X-100, 1 mM phenylsulfonyl fluoride, 1 mM DTT, 10 μgm/ml aprotinin) for 30 min. Lysates were cleared by centrifugation for 20 min. at 4° C. as described (Yin et al, 2001). Proteins were separated by SDS-PAGE, transferred to nitrocellulose and probed with anti-DF3/MUC1 (Kufe, U.S. Pat. No. 5,506,34) or anti-β-actin (Sigma). The antigen-antibody complexes were visualized by enhanced chemiluminescence (ECL; Amersham Life Sciences).
CDDO downregulates MUC1 expression: MUC1-positive cells were treated with CDDO at concentrations of 1, 3 and 5 μM.

[2] = tested on: intracellular ROS; conditions: NAC pretreatment
Protocol: Measurement of ROS levels: Cells were incubated with 10 mM DCF-DA Sigma) for 15 min. at 37° C. to assess ROS-mediated oxidation of the fluorescent compound DCF (LeBel et al., 1992). Fluorescence of oxidized DCF was measured at an excitation wavelength of 480 nm and an emission wavelength of 525 nm using a flow cytometer (Beckton Dickerson, Lincoln Park, N.J.).
As a control, cells were incubated with NAC, a scavenger of ROS.

[3] = tested on: 3Y1 fibroblasts; experiment: Apoptosis assays (TUNEL, sub-G1 DNA) in 3Y1 cells; format: cell-based, Rat
Protocol: (§1) Cell culture. Rat 3Y1 fibroblasts stably expressing the empty vector or full-length MUC1 (19) were cultured in Dulbecco's modified Eagle's medium containing 10% heat-inactivated fetal calf serum, 100 units/ml penicillin, […] streptomycin and 2 mM L-glutamine. Cells were treated with 25 mM LY294002 (Sigma), 10 mM 1-b-D-arabinofuranosycyltosine (ara-C; Sigma) or 50 mM gemcitabine (Eli Lilly).
Apoptosis assays. For TUNEL staining, cells were fixed in 4% paraformaldehyde, permeabilized in 0.1% Triton X-100/0.1% sodium citrate for 2 min and processed according to the manufacturer's instructions (In Situ Cell Death detection kit, fluorescein; Roche). For analysis of sub-G1 DNA, cells were washed with PBS, fixed in 70% ethanol, incubated with 2.5 mg/ml propidium iodide and 50 mg/ml RNase, and then monitored by FACScan.
MUC1 attenuates ara-C- and gemcitabine-induced apoptosis. To determine if MUC1 affects induction of apoptosis by ara-C, the 3Y1/vector and 3Y1/MUC1 cells were analyzed for TUNEL staining and sub-G1 DNA. […] Moreover, ara-C treatment of 3Y1/vector cells was associated with over 40% apoptosis as determined by sub-G1 DNA analysis.
To extend these observations to other anti-cancer agents, we treated the 3Y1/vector and 3Y1/MUC1 cells with gemcitabine. As determined by analysis of sub-G1 DNA and as found with ara-C, gemcitabine-induced apoptosis was attenuated in 3Y1/MUC1, as compared to 3Y1/vector, cells.

[4] = tested on: intrinsic apoptotic pathway; experiment: Activation of the intrinsic apoptotic pathway in 3Y1 cells; format: cell-based, Rat; conditions: for mitochondrial transmembrane potential: 10 mM ara-C
Protocol: as §1
Immunoblot analysis. Whole cell lysates and cytoplasmic fractions were prepared from subconfluent cells as described (Li et all., 1998; Li et al., 2001).
Assessment of mitochondrial transmembrane potential. Cells were incubated with 50 ng/ml Rhodamine 123 (Molecular Probes, Eugene, Oreg.) for 15 min at 37° C. After washing with PBS, samples were analyzed by flow cytometry using 488 nm excitation and measurement of emission through a 575/26 (ethidium) bandpass filter.
Isolation of mitochondria. Mitochondria were purified as described (Kumar et al., 2003).
MUC1 blocks activation of the intrinsic apoptotic pathway. Increases in phospho-Bad and Bcl-xL protect against apoptosis induced by activation of the intrinsic mitochondrial pathway (Van Heiden et al., 1997; Datta et al., 1995). To assess the effects of MUC1 on chemosensitivity, we treated cells with ara-C, an antimetabolite that induces release of mitochondrial cytochrome c and thereby apoptosis (Major et al., 1981; Kojima et al., 1998). Exposure of 3Y1/vector-A and -B cells to ara-C was associated with a decrease in mitochondrial transmembrane potential (FIG. 3A). […] Moreover, caspase-3-mediated cleavage of PKCd (Emoto et at., 1995) was attenuated in the MUC1 expressing cells. […] These findings indicate that MUC1 attenuates ara-C-induced activation of the intrinsic apoptotic pathway.

[5] = tested on: ZR-75-1 breast carcinoma cells; experiment: Apoptosis assay (sub-G1 DNA) in ZR-75-1 cells; format: cell-based, human; conditions: ZR-75-1 cells; 10 and 50 μM etoposide
Protocol: Apoptosis assay: Apoptotic cells were quantified by analysis of sub-G1 DNA. Cells were harvested, washed with PBS, fixed with 80% ethanol, and incubated in PBS containing 20 ng/ml RNase (Roche) for 60 min at 37° C. Cells were stained with 40 μg/ml propidium iodide (Sigma) for 30 min at room temperature in the dark. DNA content was analyzed by flow cytometry (EPICS XL-MCL, Coulter Corp.).
As a control, stable transfection of ZR-75-1 cells with the empty reterovirus had no effect on MUC1 expression. […] By contrast, CDDP treatment of ZR-75-1/MUC1siRNA cells was associated with a clear loss of ΔΨm. In concert with these findings, cytochrome C release, as measured by immunoblot, was attenuated in CDDP-treated ZR-75-1/vector cells, as compared to ZR-75-1/MUC1siRNA cells. […] Treatment of ZR-75-1/vector cells with CDDP was associated with the induction of approximately 25% apoptosis.

[6] = tested on: HeLa cells; conditions: HeLa/MUC1 vs HeLa/V, FIG. 4
Protocol: DNA content was assessed by staining ethanol-fixed cells with propidium iodide and monitoring by FACScan (Beckton Dickerson). Numbers of cells with sub-G1 DNA content were determined with a MODFIT LT program, (Verity Software House, Topsham, Me.) (Yuan et al., 1997). The cells were analyzed for induction of sub-G1 DNA by flow cytometry as a marker of apoptosis.
The induction of apoptosis in cells treated with 0.01 mM taxol for 20 hr was assessed by measuring sub-G1 DNA content of HeLa cells expressing empty vector or MUC1.

[7] = tested on: MUC1; experiment: MUC1 induction by oxidative and genotoxic stress (immunoblot)
Protocol: To determine whether MUC1 is induced in response to oxidative stress, MCF-7 cells were treated with hydrogen peroxide. Cell lysates were analyzed by immunoblotting with anti-DF3/MUC1 antibody. Lysates were prepared by suspending MCF-7 cells in lysis buffer (50 mM Tris, pH 7.6, 150 mM NaCl, 1 mM PMSF, 3 mM NaF, 1 mM sodium vandate, 1 mM DTT with protease inhibitors and either 1% NP-40 or 1% Brij-96) for 30 min. on ice. Lysates were cleared by centifugation and equal amounts of proteins were resolved by SDS-PAGE. Proteins were then transferred to nitrocellulose filters, blocked by incubation in 5% non-fat dry milk in PBS with 0.05% Tween-20 and probed with anti-MUC1 antibody (Pandey et al., 1995). Anti-actin was used as a control.
Similar studies were performed with genotoxic agents.

CC(=O)N[C@@H](CS)C(=O)O [NAC, N-acetylcysteine]
CDDO-, CDDO-Me-, CDDO-Im- and CDDO-Pr-Im-induced decreases in MUC1 ([1]; cells treated with antioxidant): blocked
H2O2-induced downregulation of MUC1 ([1]; with NAC): reversed
CDDO-induced ROS production [2]: abrogation

Nc1ccn([C@@H]2O[C@H](CO)[C@@H](O)[C@@H]2O)c(=O)n1 [ara-C, 1-b-D-arabinofuranosycyltosine]
ara-C-induced apoptosis ([3]; 3Y1/MUC1 cells): significantly attenuated
apoptosis (sub-G1 DNA analysis) ([3]; 3Y1/vector cells): over 40%
TUNEL staining ([3]; 3Y1/vector, but not 3Y1/MUC1, cells): substantial induction
mitochondrial transmembrane potential ([4]; 3Y1/MUC1 cells): apparent increase
activation of caspase-9 ([4]; 3Y1/MUC1 compared to 3Y1/vector cells): attenuated
release of cytochrome c into the cytosol ([4]; 3Y1/vector and 3Y1/MUC1 cells): release of cytochrome c into the cytosol of 3Y1/vector, and not 3Y1/MUC1
mitochondrial transmembrane potential ([4]; 3Y1/vector-A and -B cells): decrease
caspase-3-mediated cleavage of PKCd ([4]; MUC1 expressing cells): attenuated

COc1cc([C@@H]2c3cc4c(cc3[C@@H](O[C@@H]3O[C@@H]5CO[C@@H](C)O[C@H]5[C@H](O)[C@H]3O)[C@H]3COC(=O)[C@H]23)OCO4)cc(OC)c1O [etoposide]
sensitivity on knocking-down MUC1 expression [5]: increased substantially

OO [hydrogen peroxide]
apoptotic response (sub-G1 DNA), effect of MUC1 ([6]; 1 mM hydrogen peroxide for 1 hr): MUC1 inhibits the apoptotic response
MUC1 expression ([1]; 0.1 mM H2O2): downregulation of MUC1
MUC1 expression (immunoblot) ([7]; MCF-7 cells): rapidly and transiently induced

CC(=O)O[C@H]1C(=O)[C@@]2(C)[C@H]([C@H](OC(=O)c3ccccc3)[C@]3(O)C[C@H](OC(=O)[C@H](O)[C@@H](NC(=O)c4ccccc4)c4ccccc4)C(C)=C1C3(C)C)[C@]1(OC(C)=O)CO[C@@H]1C[C@@H]2O [taxol]
induced apoptosis (sub-G1 DNA), effect of MUC1 ([6]; 0.01 mM taxol for 20 hr): inhibited by MUC1 expression
MUC1 induction by diverse cytotoxic agents ([7]; available evidence, cells not given): induced
